Results taken from US6716596B2, “Agents for replacement of NAD+/NADH system in enzymatic reactions” (The Regents of the University of California, priority 2001, dated 2004).
Counter-ions that a name gives are not always drawn.

Assays:
[1] = regioselective reduction of biomimics with catalyst precursor (2) and sodium formate, followed by 1H NMR; settings: for catalytic hydride transfer: reduction with (2) and HCO2Na, 1H NMR
Procedure: The relative rates, seen tabulated in FIG. 1C, were determined by observing disappearance of the pyridinium signals versus an internal standard, [(CH3)4N]OTf (tetramethylammonium triflate), during the first 2 hours, where the relative rate of 1-benzylnicotinamide triflate (1) was set to 1.0. The turnover frequencies were calculated by the formation of mmol of product/mmol of catalyst/hour. The total turnover number in 24 hours was ˜95 for all substrates that gave product. The reactions were conducted in presilylated J. Young NMR tubes and were followed by ^1H NMR.
The electronic effect of differently substituted nicotinamide substrates was determined by their relative rates. The relative rates of these compounds were determined by observing the disappearance of the pyridinium signals compared to interval standard, [(CH3)4N]OTf, during the first 2 hours, where the relative rate of compound (1a) was 1.0.
In a typical reaction, a J. Young NMR tube was charged, biomimic substrates (1a)-(1i) (1.0 mol), 2 (1% mol), and HCO2Na (1.1 mol) used as the hydride source and a Schlenk techniques were conducted to deoxygenate the solid mixture. A diluted solvent was added to these solids for compounds (1a)-(1i), the solvent was D2O-THF-d8 (1=1 0.75 mL, deoxygenated), and the NMR tube was placed in a liquid nitrogen bath. The contents were further degassed by two successive freeze-pump-thaw cycles. After thawing out the reaction mixture, the J. Young NMR tube was immediately put in a salted ice-bath and covered with aluminum foil. The reaction was then followed by ^1H NMR spectroscopy at 26° C. temperature, after a speedy thawing out.
The given relative rates and turnover frequencies were determined by decreasing integration of the corresponding pyridinium salts measured against an internal standard, (CH3)4N(OTf), during the first 2 h of the reaction. The ratios of the 1,4- and 1,6-dihydronicotinamide derivatives of compounds (1a), (1b) and (1d)-(1g) were obtained by comparison of the resonance signals with those of authentic samples, where the diagnostic signal is the resonance for —CH2Ph moiety which can be identified unambiguously in the ^1H NMR spectrum.

[2] = competitive regioselective substrate reduction experiments with rhodium catalyst precursor (2); settings: for times faster than compound (1): competitive reduction with compound (1); for competitive rate: reduced in the presence of compound (1a)
Procedure: In order to establish whether the σ-donating ability or the electron-withdrawing effect of the 3-substituent of the 1-benzylnicotinamide was the important parameter, several competitive substrate reduction experiments were performed.
For this purpose, the compound (1a) 1-benzylnicotinamide, was reduced with rhodium catalyst precursor (2) in the presence of its alternatively substituted derivatives, compounds (1e), substituted with —C(O)—CH3, (1g), substituted with (—CN), (1d), substituted with —C(S)NH2 or (1f), substituted with —C(O)OCH3, and their competitive reduction was determined.

[3] = target: T1, horse liver alcohol dehydrogenase (HLADH) (Equus caballus, UniProt P00327); experiment: HLADH enzymatic chiral reduction of ketones with biomimic co-factor regeneration; assay type: biochemical
T1 construct: purchased Sigma
Procedure: FIG. 7 presents structures of ketone substrates 12-15 used for biomimic chiral synthesis of corresponding alcohols. Conversion of the substrates 12-15 to their corresponding alcohols are expressed in % yield, and TOF in d^−1 and S-enantiomer excess (ee) are also shown for each conversion. Corresponding values obtained with NAD^+ are given in parenthesis. The S-enantiomeric excess (ee) was determined by GLC with a modified β-cyclodextrin capillary column.
[Cp*Rh(bpy)(H2O)]OTf2 (1.9 mg, 2.61×10^−3 mmol), sodium formate (17.8 mg, 261.69×10^−3 mmol), NAD^+ (8.1 mg, 11.23×10^−3 mmol) and HLADH (10 units) were placed in a 10 mL Schlenk flask, and Schlenk techniques were followed to deoxygenate the solid mixture.
Under positive argon pressure, 5 mL of potassium phosphate buffer (100 mM, pH=7.02, deoxygenated) and carbonyl substrate (83.58×10^−3 mmol, deoxygenated) were added via syringe. The reaction flask was immediately securely capped with a glass-stopper and shaken with a shaker in 30° C. water-bath. The reaction was monitored by gas chromatography (GC), equipped with a β-cyclodextrin column (Supelco, β-DEX-225), and the products were identified by comparing the retention time with the corresponding authentic chiral samples and were confirmed by GC-MS. The enantiomeric excess of the products was determined directly by their relative area in the chromatogram. The progress of the reaction was obtained by mixing the reaction aliquot with an internal standard (cyclohexanol in phosphate buffer), and then calibrating the measured relative area in the chromatogram with their corresponding response factors. The reaction was monitored for 24 hours.
The same procedure as described in section A was followed, except that NAD^+ was substituted with any one of the biomimic compounds of the invention.

[4] = stability observations (light, air, solvent); assay type: physicochemical

T1 sequence (P00327 2-375 limits assumed): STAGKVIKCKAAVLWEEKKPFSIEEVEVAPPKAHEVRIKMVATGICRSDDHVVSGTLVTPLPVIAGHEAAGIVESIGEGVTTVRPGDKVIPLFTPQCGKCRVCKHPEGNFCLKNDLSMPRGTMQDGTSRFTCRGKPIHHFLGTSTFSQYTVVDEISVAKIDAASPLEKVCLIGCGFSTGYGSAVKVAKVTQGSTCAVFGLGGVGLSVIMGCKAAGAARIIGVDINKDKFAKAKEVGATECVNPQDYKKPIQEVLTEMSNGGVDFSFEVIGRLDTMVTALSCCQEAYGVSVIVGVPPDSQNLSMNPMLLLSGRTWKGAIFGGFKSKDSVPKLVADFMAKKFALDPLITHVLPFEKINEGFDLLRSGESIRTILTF

**Q.** Which catalytic hydride transfer [1] does the source give for `O=S(=O)([O-])C(F)(F)F.c1ccc(C[n+]2ccccc2)cc1` [Compound 1i, 1-Benzyl-pyridinium triflate] here?
**A.** not observed

**Q.** With `CCN(CC)C(=O)c1ccc[n+](Cc2ccccc2)c1` [Compound 1c, 1-Benzyl-N,N-diethylnicotinamide, Triflate Salt] as the molecule, how does the catalytic hydride transfer [1] read?
**A.** not observed

**Q.** With `NC(=S)c1ccc[n+](Cc2ccccc2)c1` [Compound 1d, 1-Benzylthionicotinamide, Triflate Salt] as the molecule, how does the “times faster than compound (1)” value [2] read?
**A.** 1.3 times

**Q.** Which competitive rate [2] does the source give for `CC(=O)c1ccc[n+](Cc2ccccc2)c1.O=S(=O)([O-])C(F)(F)F` [Compound 1e, 1-Benzyl-3-acetylpyridinium Triflate] here?
**A.** 0.9

**Q.** What does the source list for `C[n+]1cccc(C(N)=O)c1` [1-methylnicotinamide, 1-Methylnicotinamide Triflate Salt]?
**A.** relative rate ratio of 1-benzyl/1-methylnicotinamide [1]: 2.0; relative rate of regioselective reduction ([1]; disappearance of pyridinium signals vs [(CH3)4N]OTf during first 2 hours, compound (1a) set to 1.0): 0.5

**Q.** Which catalytic hydride transfer [1] does the source give for `Cc1ccc[n+](Cc2ccccc2)c1.O=S(=O)([O-])C(F)(F)F` [Compound 1h, 1-Benzyl-3-methylpyridinium triflate] here?
**A.** not observed

**Q.** For `NC(=O)C1=CN(Cc2ccccc2)C=CC1` [Compound 3, 1-benzyl-1,4-dihydronicotinamide], which “recognition by HLADH as hydride catalyst of the chiral conversion” value [3] is on record?
**A.** recognizes

**Q.** Which “enantiomeric excess of chiral alcohol from the ketone substrate, S-enantiomer” value [3] does the source give for `CC(=O)Cc1ccccc1` [Compound 13, benzylmethylketone] here?
**A.** > 99 % ee

**Q.** For “[Cp*Rh(η^2-(N,N)-2,2′-bipyridyl)(H2O)](OTf)2 [Compound 2]”, which stability [4] is on record?
**A.** stable as a solid in the air

**Q.** With `CC(=O)c1ccccc1` [Compound 14, acetophenone] as the molecule, how does the “enantiomeric excess of chiral alcohol from the ketone substrate, S-enantiomer” value [3] read?
**A.** > 96 % ee

**Q.** And the “yield of chiral product” value [3]?
**A.** 5%

**Q.** For `COC(=O)c1ccc[n+](Cc2ccccc2)c1.O=S(=O)([O-])C(F)(F)F` [Compound 1f, 1-Benzyl-3-carbomethoxypyridinium Triflate], which “times faster than compound (1)” value [2] is on record?
**A.** 1.2 times

**Q.** With `N#Cc1ccc[n+](Cc2ccccc2)c1.O=S(=O)([O-])C(F)(F)F` [Compound 1g, 1-Benzyl-3-cyanopyridinium triflate] as the molecule, how does the competitive rate [2] read?
**A.** 0.8

**Q.** For `COP(=O)(O)OC[C@H]1O[C@@H](N2C=CCC(C(N)=O)=C2)[C@H](O)[C@@H]1O`, which stability [4] is on record?
**A.** both light- and air-sensitive
